Values of other authors in publication PMC3314724 (Journal of Molecular Modeling, 2011).

Columns and labels:
FPR1 = FPR1 agonist class, peptide derivatives

In the case of N-formyl-Met-Leu-Phe [fMLF], the EC50 (human neutrophils) is listed as ~0.5 nM and the “Observed value (activity class)” value (FPR1) is listed as “Active”.
For N-formyl-Met-Leu-Phe-OMe [fMLF-OMe], the “Observed value (activity class)” value (FPR1) is given as “Active”.
For “N-formyl-Met-Leu-Ψ(COO) Phe-NHBzl [fMLΨ(COO)F-NHBzl]”, the “Observed value (activity class)” value (FPR1) is given as “Active”.
For “boc-cis-4-mer-captomethyl-Pro-Leu-Phe-OMe [boc-cis-4-mercaptomethyl-PLF-OMe]”, the “Observed value (activity class)” value (FPR1) is given as “Active”.
